From patent US11474105B2, “Methods and compositions for SIRT1 expression as a marker for endometriosis and subfertility” (The University of North Carolina at Chapel Hill, priority 2016, dated 2022)

System: BCL6 positive individuals
Assay: IVF ovum transfer or frozen embryo transfer after pretreatment
Assay type: in vivo
Settings: pretreatment for two months prior to transfer, compared to no treatment, p<0.0001
Procedure: In vitro fertilized (IVF) ovum transfer or frozen embryo transfer was carried out in BCL6 positive individuals. There were three treatment groups: no treatment prior to transfer, laparoscopy with treatment of endometriosis prior to transfer and GnRH agonist suppression (Lupron) pretreatment for two months prior to transfer.

SMILES: CCNC(=O)[C@@H]1CCCN1C(=O)[C@H](CCCNC(=N)N)NC(=O)[C@H](CC(C)C)NC(=O)[C@@H](CC(C)C)NC(=O)[C@H](Cc1ccc(O)cc1)NC(=O)[C@H](CO)NC(=O)[C@H](Cc1c[nH]c2ccccc12)NC(=O)[C@H](Cc1c[nH]cn1)NC(=O)[C@@H]1CCC(=O)N1 [Lupron, leuprolide acetate]
- time to pregnancy: significantly better
- transplantation rate: significantly better
